Values joined by “and” are separate entries in the source; they are usually repeats but may differ in a detail not shown here. Equal entries are not always repeated. Active and inactive are the calls of the source.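 The calls were made as follows: active = cell-killing curve crosses a set limit at a concentration no more than twice the top valid dose; inconclusive = flat curve with a 30 to 70% loss, or a poor fit; inactive = signal rising instead of falling, and the rest.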

Test system in the first assay: not listed separately
As to the kind of experiment: cytotoxicity in EWS/Fli1-dependent TC71 cells – cell-based, luminescence, cherry-picked samples, retest, confirmation (AID 720570). The note with it: TC71 Ewing sarcoma viability, CellTiter-Glo ATP, 72 h; at 23.5 µM (top of the series).
Regarding `COC(=O)C[C@@H]1CC[C@@H]2[C@@H](COc3ccc(NC(=O)Nc4ccccc4C)cc3C(=O)N2C)O1`, the activity change, negative = cytotoxicity is 14.2% (inactive).

Still in this assay, the particulars now being: TC71 Ewing sarcoma viability, CellTiter-Glo ATP, 72 h; at 26 µM (top of the series).
As for `O=C(Cc1nn[nH]n1)c1ccccc1O`, the activity change, negative = cytotoxicity was 13.8% (inactive). For `COc1ccc2nc(-c3ccc(F)cc3)sc2c1`, the activity change, negative = cytotoxicity was -14.1% (inactive).

For the compound `C/C(=N\OCc1cccc(C(=O)O)c1)c1ccc(Cl)cc1`, the activity change, negative = cytotoxicity was -12.2% (inactive). Turning to `O=C(Nc1ccc(NC(=O)c2cc3ccccc3o2)cc1)c1ccc2c(c1)OCCO2`, the activity change, negative = cytotoxicity is -3.21% (inactive). On to `CCOC(=O)C1CCCCN1C(=O)CCc1c(C)nc2cc(-c3ccccc3)nn2c1C` (stereo unspecified), for which the activity change, negative = cytotoxicity was 11.3% (inactive). In the case of `CCNC(=O)c1cccc(S(=O)(=O)N2CCCCCC2)c1`, the activity change, negative = cytotoxicity was -7.03% (inactive). As to `CCCN1C(=O)/C(=C/c2nc3ccccc3c(=O)[nH]2)c2ccccc21`, the activity change, negative = cytotoxicity was 3.09% (inactive).

For `O=C(NCc1ccccn1)c1ccc(CNS(=O)(=O)c2cccc(Cl)c2)cc1`, the activity change, negative = cytotoxicity is 3.71% (inactive).

Turning to `COc1ccc2cc(C(N)=O)/c(=N\NC(=O)c3ccccc3)oc2c1`, the activity change, negative = cytotoxicity was 16.9% (inactive). Regarding `OCCN1CCN(C(=S)c2ccc(-c3ccccc3)cc2)CC1`, the activity change, negative = cytotoxicity was -0.296% (inactive). Regarding `COc1ccc(C(=O)OCC(=O)Nc2ccc(Cl)c(C(F)(F)F)c2)c(OC)c1OC`, the activity change, negative = cytotoxicity is 3.2% (inactive). With `C[C@@H]1CCCCO[C@H](CN(C)Cc2ccc(C(F)(F)F)cc2)[C@H](C)CN([C@H](C)CO)C(=O)c2cc(NC(=O)CCCN(C)C)ccc2O1`, the activity change, negative = cytotoxicity is -2.5% (inactive). The same measure, in the same setting: for `COc1ccc(/C=N/Nc2ccc(C(=O)O)cc2)cc1Br` the value was -12.7% (inactive); for `Brc1ccc(CSc2nnc(-c3ccco3)o2)cc1`, 9.85% (inactive). Consider `CCN(CC)c1ccc(C2NC(=O)c3ccccc3N2)cc1` (stereo unspecified), for which the activity change, negative = cytotoxicity is -26.2% (inactive).

For `C[C@H](CO)N1C[C@H](C)[C@H](CN(C)Cc2ccc(C(F)(F)F)cc2)Oc2c(NS(=O)(=O)c3ccc(Cl)cc3)cccc2C1=O`, the activity change, negative = cytotoxicity was 46.6% (inactive). With `C[C@@H]1CN([C@H](C)CO)S(=O)(=O)c2ccc(C#Cc3ccncc3)cc2O[C@@H]1CN(C)C(=O)Nc1ccc2c(c1)OCO2`, the activity change, negative = cytotoxicity is -0.54% (inactive). Take `CCOc1ccc(-c2cc(CCCC(=O)NCc3ccc(C)cc3)no2)cc1`: the activity change, negative = cytotoxicity was -3.16% (inactive). Consider `CCN1CCN(/C=N/c2nc3c(s2)CCCC3)CC1`, for which the activity change, negative = cytotoxicity was -11.1% (inactive). Take `O=C(O)c1ccc2cc(-c3ccccc3)[nH]c2c1`: the activity change, negative = cytotoxicity was 10.6% (inactive). Turning to `S=C(NCCN1CCOCC1)Nc1ccccc1Cl`, the activity change, negative = cytotoxicity was 11.4% (inactive). Turning to `Cc1ccc2oc(/N=C(\N)NC(=O)C(C)(C)C)nc2c1`, the activity change, negative = cytotoxicity was 2.46% (inactive). Regarding `CC(=O)c1ccc(NC(=O)c2noc3c2CCC3)cc1`, the activity change, negative = cytotoxicity is -19.5% (inactive). Consider `O=C(O)c1ccc(N/N=C/c2c[nH]c3ccccc23)cc1`, for which the activity change, negative = cytotoxicity was 19.2% (inactive).

With `O=C(O)c1cccc(N/N=C/c2cccs2)c1`, the activity change, negative = cytotoxicity was 8.12% (inactive). Regarding `O=C1CCC2S/C(=C/Nc3ccc(C(F)(F)F)cc3)C(=O)N12` (stereo unspecified), the activity change, negative = cytotoxicity is 11.9% (inactive).

Consider `CCS(=O)(=O)N1Cc2ccccc2CC1C(=O)Nc1nnc(SCc2ccc(C#N)cc2)s1` (stereo unspecified), for which the activity change, negative = cytotoxicity is 21.3% (inactive).

Turning to `Nc1ccc2c(c1)OC1(CCCC1)O2`, the activity change, negative = cytotoxicity is 25.1% (inactive). For the compound `C[C@@H]1CN([C@@H](C)CO)S(=O)(=O)c2ccc(C#Cc3ccncc3)cc2O[C@H]1CN(C)C(=O)C1CCOCC1`, the activity change, negative = cytotoxicity was -5.87% (inactive). Take `O=C(CCCCl)Nc1nc(-c2ccc3c(c2)OCCO3)cs1`: the activity change, negative = cytotoxicity is 3.63% (inactive). `COc1ccc(Nc2oc(COc3ccccc3OC)nc2C#N)cc1`: the activity change, negative = cytotoxicity is 0.131% (inactive).

Regarding `C[C@@H]1CN([C@@H](C)CO)S(=O)(=O)c2ccc(C#CCN(C)C)cc2O[C@@H]1CN(C)Cc1ccncc1`, the activity change, negative = cytotoxicity was -4.92% (inactive). Still for that read-out and setting: in the case of `CC(C)c1oc(=O)cc2c1[C@@H](O)[C@H]1OC(=O)[C@@]3(C)CC[C@@H](O)[C@@]2(C)C13` (stereo partly specified) it was -18.6% (inactive); in that of `Cc1ccc(C(C(=O)NCc2ccco2)N(C(=O)CNC(=O)c2cccs2)c2c(C)cc(C)cc2C)cc1` (stereo unspecified), -13.1% (inactive). Take `CCCn1nnc(NC(=S)NC(=O)C(C)(C)C)n1`: the activity change, negative = cytotoxicity was 17.3% (inactive).

A further assay deals with TC71 Ewing sarcoma viability, CellTiter-Glo ATP, 72 h. The description is as above.
Conditions: not given
As for `CCN1/C(=C/C(C)=C/c2sc3ccccc3[n+]2CC)Sc2ccccc21`, the AC35 was 0.951 µM. Still for that read-out and setting: for `Cn1ccc2cc(-c3ccc4ncnc(NCc5cccs5)c4c3)ccc21` the value was 5.67 µM. For `COc1cccc(CN2CCC2(C)C(=O)Nc2cccc3cccnc23)c1F` (stereo unspecified), the AC35 was 14.5 µM.

For the compound `COc1ccc(CN(C)c2ncnc3sccc23)c(OC)c1OC`, the AC35 was 16.2 µM. Regarding `COc1ccc(C2c3cc4c(cc3OC(NNC(N)=O)C2C)OCO4)cc1` (stereo unspecified), the AC35 is 12 µM. As to `C[C@@H]1CN([C@H](C)CO)C(=O)c2cc(C#CCN(C)C)cnc2O[C@H]1CN(C)Cc1ccc(-c2ccccc2)cc1`, the AC35 is 22.2 µM. In the case of `C[C@H]1CN([C@@H](C)CO)C(=O)c2cc(NC(=O)C3CCCCC3)ccc2O[C@H]1CN(C)Cc1ccc(C(=O)Nc2ccccc2N)cc1`, the AC35 was 11.1 µM. Take `O=C(c1nnsc1S(=O)c1ccc(Cl)cc1)N1CCOCC1` (stereo unspecified): the AC35 is 21.9 µM. Regarding `O=c1c2ccccc2nc(/C=C/c2cc(Br)ccc2O)n1CCCO`, the AC35 is 13.8 µM. With `Cc1cc(C(=O)Nc2ccc3c(c2)C(=O)N(C)[C@@H]2CC[C@@H](CC(=O)NCc4ccc(-c5ccccc5)cc4)O[C@H]2CO3)no1`, the AC35 is 6.73 µM.

Consider `C[C@]12CC[C@H](O)C[C@H]1CC[C@@H]1C2CC[C@]2(C)[C@@H](C3=CC(=O)OC3)[C@@H](O)C[C@]12O` (stereo partly specified), for which the AC35 is 9.35 µM.

With `CCCCC[C@H](C)N1C[C@H](COCc2ccccc2)Oc2cc(N3CC[C@@H](N(C)C)C3)ccc2S1(=O)=O`, the AC35 is 14.2 µM. With `O=C1CCCC2=C1C(c1ccccn1)Nc1ccc(C(=O)c3ccccc3)cc1N2` (stereo unspecified), the AC35 is 17.4 µM. On to `COc1cc(-c2noc(C)c2C#Cc2nccn2C)cc(OC)c1OC`, for which the AC35 is 13.1 µM. The same measure, in the same setting: for `O=C1NC(=O)N(Cc2ccco2)C(=O)/C1=C/C=C/c1ccco1` the value was 12.5 µM; for `C[C@@H]1CCCCO[C@H](CN(C)Cc2ccc(C(=O)Nc3ccccc3N)cc2)[C@@H](C)CN([C@H](C)CO)C(=O)c2cc(NS(=O)(=O)c3ccc(Cl)cc3)ccc2O1`, 16.2 µM.

Turning to `O=C(CCc1ccccc1)NC(c1cccs1)c1cc(Cl)c2cccnc2c1O` (stereo unspecified), the AC35 was 2.81 µM.

Consider `N#C[C@H]1[C@H](c2ccc(-c3ccccc3F)cc2)[C@@H](CO)N1C(=O)c1ccccn1`, for which the AC35 is 13.9 µM.

As to `O=C(C[C@H]1C[C@H]2c3cc(NS(=O)(=O)c4ccc(F)cc4)ccc3O[C@H]2[C@H](CO)O1)NCc1ccc(Oc2ccccc2)cc1`, the AC35 is 10.8 µM. For `O=C1c2ccccc2C(=O)c2cc(N3CCCCC3)ccc21`, the AC35 is 23.3 µM. Regarding `C[C@@H]1O[C@@H](O[C@@H]2C=C3CCC4C(CC[C@]5(C)[C@@H](c6ccc(=O)oc6)CC[C@]45O)[C@@]3(C)CC2)[C@H](O)[C@H](O)[C@H]1O` (stereo partly specified), the AC35 was 0.0271 µM. For `Cc1ccc2c(=O)n3c(nc2c1)C(Cc1ccc(O)cc1)NC(=O)c1cc2ccccc2cc1-3` (stereo unspecified), the AC35 is 9.76 µM. Still for that read-out and setting: in the case of `CN(Cc1cnc2nc(N)nc(N)c2n1)c1ccc(C(=O)N[C@@H](CCC(=O)O)C(=O)O)cc1` it was 0.0194 µM and 0.0201 µM. In the case of `Cc1ccccc1NC(=O)C(=Cc1ccc(C(=O)O)cc1)C(=O)Nc1ccccc1C`, the AC35 was 6.67 µM.

`CCCc1cc(=O)oc2c3c(c4c(c12)OC(C)(C)C=C4)OC(C)C(C)C3O` (stereo unspecified): the AC35 is 22.6 µM. In the case of `OC[C@H]1O[C@@H](n2cnc3c(NCc4ccco4)ncnc32)[C@H](O)[C@@H]1O`, the AC35 was 8.41 µM. For the compound `Cc1[nH]c(=S)sc1Cc1ccc(Cl)c(Cl)c1`, the AC35 was 0.898 µM. `O=c1cc(-c2ccccc2)oc2ccc3ccccc3c12`: the AC35 was 10.7 µM. Turning to `CCc1cccc2c(C(=O)CN3C(=O)NC4(CCCCC4)C3=O)c[nH]c12`, the AC35 is 4.29 µM. Regarding `C[C@H]1CN([C@@H](C)CO)C(=O)c2cc(N(C)C)ccc2O[C@H]1CN(C)Cc1ccc(C(=O)Nc2ccccc2N)cc1`, the AC35 was 12.1 µM.

Consider `CC(=O)Oc1ccc(-c2ccc(C(=O)Nc3cccc(S(=O)(=O)N4CCOCC4)c3)cc2)cc1`, for which the AC35 is 3.71 µM. On to `COc1ccc(S(=O)(=O)N2CCCc3nc(-c4ccc(F)cc4)ccc32)cc1`, for which the AC35 is 7.3 µM. As for `C[C@@H]1CN([C@@H](C)CO)C(=O)Cc2cc(N(C)C)ccc2O[C@H]1CN(C)Cc1ccc(C(=O)Nc2ccccc2N)cc1`, the AC35 is 13.1 µM.

Take `CN(c1ccc(NC(=O)CCc2c[nH]c3ccccc23)cc1)c1ccccn1`: the AC35 is 8.74 µM. Take `Nc1nc(=S)c2ncn([C@@H]3O[C@H](CO)[C@@H](O)[C@H]3O)c2[nH]1`: the AC35 was 1.74 µM. In the case of `Cc1cc(C)cc(N2C(=O)NC(=O)/C(=C\C=C\c3ccco3)C2=O)c1`, the AC35 was 11.3 µM. The same measure, in the same setting: in the case of `COc1cc2c(cc1NC(=O)CN(C)Cc1ccc(OC)c(OC)c1)oc1ccccc12` it was 14.5 µM; in that of `O=C(Nc1ccccc1F)N1CCCCN2[C@H](CO)[C@H](c3ccc(/C=C/c4ccccc4)cc3)[C@H]2C1`, 10.6 µM. As for `C[C@@H]1CN([C@@H](C)CO)C(=O)c2cc(NC(=O)c3ccccc3)ccc2O[C@@H](C)CCCCO[C@H]1CN(C)C(=O)Nc1cccc2ccccc12`, the AC35 is 0.679 µM.

For the compound `COC1C(C)OC(OC2CC(C)(O)Cc3cc4c(c(O)c32)C(=O)c2c(O)cc3c(c2C4=O)OC2OC3(C)C(O)C(N(C)C)C2O)C(OC)C1(C)OC` (stereo unspecified), the AC35 was 0.169 µM.

The values above are taken from PubChem BioAssay AID720570 (Broad Institute, 2013).
